ChEMBL document CHEMBL1201862, “PubChem BioAssay data set” (2004)
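A five-concentration, 48-hour dose response in 96-well plates underlies each endpoint, interpolated linearly between surrounding concentrations. GI50: concentration for 50% inhibition of growth.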 Calls of active or inactive are those of the source. No stated cut-off is given here; in the data, active = GI50 up to about 1.1 µM and inactive = higher.

Legend:
Assay in all cases: NCI anticancer screen, dose series, 48 h
M14 = system: M14
SK-OV-3 = system: SK-OV-3
KM-20L2 = system: KM-20L2
LXFL 529 = system: LXFL 529
MOLT-4 = system: MOLT-4
OVCAR-8 = system: OVCAR-8
DMS-273 = system: DMS-273
UACC-257 = system: UACC-257
RPMI-8226 = system: RPMI-8226
ACHN = system: ACHN
DLD-1 = system: DLD-1
A549 = system: A549
NCI-H522 = system: NCI-H522
U-251 = system: U-251
LOX IMVI = system: LOX IMVI
COLO 205 = system: COLO 205
SNB-78 = system: SNB-78
HL-60 = system: HL-60
NCI-H23 = system: NCI-H23
SK-MEL-28 = system: SK-MEL-28
SK-MEL-2 = system: SK-MEL-2
HOP-62 = system: HOP-62
HCC 2998 = system: HCC 2998
NCI-H226 = system: NCI-H226
KM12 = system: KM12
K562 = system: K562
NCI-H460 = system: NCI-H460
SK-MEL-5 = system: SK-MEL-5
TK-10 = system: TK-10
SF-295 = system: SF-295
OVCAR-3 = system: OVCAR-3
RXF 393 = system: RXF 393
HT-29 = system: HT-29
HCT-116 = system: HCT-116
SF-268 = system: SF-268
UACC-62 = system: UACC-62
DMS-114 = system: DMS-114
SNB-75 = system: SNB-75
M19-MEL = system: M19-MEL
CCRF-CEM = system: CCRF-CEM
SNB-19 = system: SNB-19
UO-31 = system: UO-31
SF-539 = system: SF-539
IGROV-1 = system: IGROV-1
EKVX = system: EKVX
786-0 = system: 786-0
SN12C = system: SN12C
HOP-92 = system: HOP-92
Malme-3M = system: Malme-3M
XF498 = system: XF498
SW-620 = system: SW-620
HOP-18 = system: HOP-18
OVCAR-5 = system: OVCAR-5
A498 = system: A498
OVCAR-4 = system: OVCAR-4
HCT-15 = system: HCT-15
CAKI-1 = system: CAKI-1

Measured: GI50

C#C[C@]1(O)CCC2C3CCc4cc(Oc5nc(F)nc(-n6c(C)nc7cc8ccccc8cc76)n5)ccc4C3CCC21C (stereo not given in full)
inactive: M14 43.8 µM | SK-OV-3 62.1 µM | KM-20L2 32.4 µM | LXFL 529 41.1 µM | MOLT-4 27.4 µM | OVCAR-8 39.1 µM | DMS-273 20.8 µM | UACC-257 86.5 µM | RPMI-8226 38.2 µM | ACHN 61.4 µM | DLD-1 53.3 µM | A549 41.5 µM | NCI-H522 37.3 µM | U-251 36.2 µM | LOX IMVI 40.1 µM | COLO 205 20.6 µM | SNB-78 75.3 µM | HL-60 31.1 µM | NCI-H23 59.4 µM | SK-MEL-28 > 10 µM | SK-MEL-2 45.3 µM | HOP-62 35.7 µM | HCC 2998 53.5 µM | NCI-H226 47.8 µM | KM12 32.7 µM | K562 34 µM | NCI-H460 25.4 µM | SK-MEL-5 35.6 µM | TK-10 65.9 µM | SF-295 33.8 µM | OVCAR-3 50.1 µM | RXF 393 48.9 µM | HT-29 31 µM | HCT-116 32.8 µM | SF-268 47.6 µM | UACC-62 29.2 µM | DMS-114 20.6 µM | SNB-75 35.6 µM | M19-MEL 37.1 µM | CCRF-CEM 36.9 µM | SNB-19 53.1 µM | UO-31 75.2 µM | SF-539 31.6 µM | IGROV-1 54.3 µM | EKVX 9.35 µM | 786-0 57 µM | SN12C 37.5 µM | HOP-92 16.3 µM | Malme-3M 47.3 µM | XF498 61 µM | SW-620 35 µM | HOP-18 30.6 µM

Cc1ccc(NC(=O)C2C(=O)N(c3ccc(C)cc3)C(=O)/C2=N\NC(N)=S)cc1 (stereo not given)
> 100 µM: HCT-15
inactive: M14 > 100 µM | OVCAR-5 > 100 µM | SK-OV-3 > 100 µM | KM-20L2 > 100 µM | LXFL 529 > 100 µM | MOLT-4 > 100 µM | OVCAR-8 > 100 µM | DMS-273 > 100 µM | UACC-257 > 100 µM | RPMI-8226 > 100 µM | ACHN > 100 µM | A498 > 100 µM | NCI-H522 > 100 µM | U-251 > 100 µM | LOX IMVI > 100 µM | COLO 205 > 100 µM | SNB-78 > 100 µM | NCI-H23 > 100 µM | SK-MEL-28 > 100 µM | SK-MEL-2 > 100 µM | HOP-62 > 100 µM | OVCAR-4 > 100 µM | HCC 2998 > 100 µM | NCI-H226 > 100 µM | KM12 > 100 µM | K562 > 100 µM | NCI-H460 > 100 µM | SK-MEL-5 > 100 µM | TK-10 > 100 µM | SF-295 > 100 µM | OVCAR-3 > 100 µM | RXF 393 > 100 µM | HT-29 > 100 µM | HCT-116 > 100 µM | SF-268 > 100 µM | UACC-62 > 100 µM | DMS-114 > 100 µM | SNB-75 > 100 µM | M19-MEL > 100 µM | CAKI-1 > 100 µM | SNB-19 > 100 µM | UO-31 > 100 µM | SF-539 > 100 µM | IGROV-1 > 100 µM | EKVX > 100 µM | 786-0 > 100 µM | SN12C > 100 µM | HOP-92 > 100 µM | Malme-3M > 100 µM | XF498 > 100 µM | SW-620 > 100 µM | HOP-18 > 100 µM
